The subject of experiment [1] is SN-12C. Nature of the experiment: NCI 60 cell-line screen, SN-12C (Kidney). Conditions: averaged, quadruplicate testing, 48 h, SRB. Type of experiment: cell-based, human. As to the method:
(§1) The NCI screen consists of a panel of 60 different human tumor cell lines against which compounds are tested over a defined range of concentrations to determine the relative degree of growth inhibition or cytotoxicity against each cell line. The design and operation of the screen is such that for each compound tested, both the absolute and relative sensitivities of individual cell lines comprising the screen are sufficiently reproducible that a characteristic profile or “fingerprint” of cellular response is generated. Compounds which are active in the NCI screen show pronounced differential tumor growth-inhibitory and/or cytotoxic effects to the diverse cell lines comprising the 60 cell-line panel. The degree of differential response between the most and least sensitive lines typically may be relatively small (e.g., 2- to 10-fold), or occasionally as great as 3-4 orders of magnitude. […]
(§2) In the screening assay, each agent is tested over a broad concentration range against every cell line in the panel. […] Test compounds are evaluated at five 10-fold dilutions. […] Optical densities are measured on automated plate readers, followed by computerized data acquisition, processing, storage, and availability for display and analysis. […]

Experiment [2] has as its system SF-295. Nature of the experiment: NCI 60 cell-line screen, SF-295 (Brain). Type of experiment: cell-based, human. To be noted: averaged, quadruplicate testing, 48 h, SRB. As to the method: as §1, §2
The test system of experiment [3] is MDA-MB-231/ATCC. Nature of the experiment: NCI 60 cell-line screen, MDA-MB-231/ATCC (Breast). The class given is cell-based, human. Conditions: averaged, quadruplicate testing, 48 h, SRB. The procedure: as §1, §2
The test system of experiment [4] is MCF-7-ADR-RES. Nature of the experiment: NCI 60 cell-line screen, MCF-7-ADR-RES (Breast). The class given is cell-based, human. To be noted: averaged, quadruplicate testing, 48 h, SRB. The procedure: as §1, §2
The test system of experiment [5] is U251. Nature of the experiment: NCI 60 cell-line screen, U251 (Brain). Type of experiment: cell-based, human. To be noted: averaged, quadruplicate testing, 48 h, SRB. As to the method: as §1, §2
Experiment [6] deals with NCI-H23. Nature of the experiment: NCI 60 cell-line screen, NCI-H23 (Lung). Type of experiment: cell-based, human. To be noted: averaged, quadruplicate testing, 48 h, SRB. The procedure: as §1, §2
In experiment [7] the test system is SK-MEL-2. The experiment is described as follows: NCI 60 cell-line screen, SK-MEL-2 (Melanoma). The class given is cell-based, human. To be noted: averaged, quadruplicate testing, 48 h, SRB. The procedure:
as §1, §2

Experiment [8] has as its system MALME-3M. Nature of the experiment: NCI 60 cell-line screen, MALME-3M (Melanoma). Type of experiment: cell-based, human. Conditions: averaged, quadruplicate testing, 48 h, SRB. As to the method:
as §1, §2

Experiment [9] deals with HOP-62. The experiment is described as follows: NCI 60 cell-line screen, HOP-62 (Lung). Type of experiment: cell-based, human. Conditions: averaged, quadruplicate testing, 48 h, SRB. As to the method: as §1, §2
The test system of experiment [10] is SK-MEL-28. Nature of the experiment: NCI 60 cell-line screen, SK-MEL-28 (Melanoma). The class given is cell-based, human. Conditions: averaged, quadruplicate testing, 48 h, SRB. The procedure:
as §1, §2

For experiment [11], the system named is CAKI-1. The experiment is described as follows: NCI 60 cell-line screen, CAKI-1 (Kidney). Conditions: averaged, quadruplicate testing, 48 h, SRB. The class given is cell-based, human. The procedure:
as §1, §2

For experiment [12], the system named is HS-578T. The experiment is described as follows: NCI 60 cell-line screen, HS-578T (Breast). To be noted: averaged, quadruplicate testing, 48 h, SRB. The class given is cell-based, human. As to the method:
as §1, §2

For experiment [13], the system named is NCI-H522. Nature of the experiment: NCI 60 cell-line screen, NCI-H522 (Lung). Conditions: averaged, quadruplicate testing, 48 h, SRB. The class given is cell-based, human. As to the method: as §1, §2
Experiment [14] relates to OVCAR-5. Nature of the experiment: NCI 60 cell-line screen, OVCAR-5 (Ovary). Type of experiment: cell-based, human. Conditions: averaged, quadruplicate testing, 48 h, SRB. As to the method: as §1, §2
Experiment [15] relates to panel of 60 different human tumor cell lines. The experiment is described as follows: NCI 60 cell-line human tumor screen, whole panel. Type of experiment: cell-based. The procedure: as §1, §2
Three additional numbers are printed at the base of each of the three respective mean-graphs. […] The MG-MID is the calculated mean panel GI50, TGI, or LC50. […]

The subject of experiment [16] is M14. Nature of the experiment: NCI 60 cell-line screen, M14 (Melanoma). The class given is cell-based, human. Conditions: averaged, quadruplicate testing, 48 h, SRB. The procedure: as §1, §2
In experiment [17] the test system is PC-3. Nature of the experiment: NCI 60 cell-line screen, PC-3 (Prostate). Type of experiment: cell-based, human. Conditions: averaged, quadruplicate testing, 48 h, SRB. As to the method: as §1, §2
Experiment [18] deals with 786-0. The experiment is described as follows: NCI 60 cell-line screen, 786-0 (Kidney). The class given is cell-based, human. Conditions: averaged, quadruplicate testing, 48 h, SRB. As to the method:
as §1, §2

For experiment [19], the system named is MOLT-4. The experiment is described as follows: NCI 60 cell-line screen, MOLT-4 (Leukemia). Type of experiment: cell-based, human. Conditions: averaged, quadruplicate testing, 48 h, SRB. As to the method: as §1, §2

Experimental findings from patent US6353019B1, “Macrocyclic lactones, compositions, and methods of use” (United States of America as represented by the Department …, priority 1997, dated 2002) are described below.

With salicylihalamide A, the “negative log10 GI50” value in experiment [1] came to 7.77; in experiment [2] it was 8.96; in [3], 6.92; in [4], 8.07; in [5], 7.57; in [6], 6.55. In addition, the “negative log10 GI50” value in experiment [7] was determined as 7.47; in experiment [8] it was 7.62; in experiment [9], 8.38; in experiment [10], 7.00; in experiment [11], 8.96; in experiment [12] it was 5.85. Moreover, the “negative log10 GI50” value in [13] was 7.26; in [14], 8.11; in experiment [16], 8.92; in experiment [17], 7.51; in [18] it was 7.92; in [19] it was 7.96. Further, in [15] (mean over the NCI 60 cell-line panel, read-out: mean panel GI50 concentration), the GI50 is around 15 nM. Also, the “range of differential sensitivity among the 60 cell-lines” value in experiment [15] (most vs least sensitive lines of the NCI panel) is recorded as “greater than or equal to 10^3”.
